One test concerns summer barley (Pasadena). The test is described as follows: Glasshouse trial, lodging of summer barley after leaf spray. The test is classed as in vivo. As to conditions: for % lodging 30 days after spray application: Summer-barley Pasadena, spray at growth stage 30. The source says: (§1) A glasshouse trial was setup to compare growth regulation effects of trinexapac-ethyl, seaweed extract, and mixtures of trinexapac-ethyl and seaweed extract at various rates, on both summer barley (Pasadena) and winter rye (Reknit).
(§2) Each treatment was applied as a spray to the leaves of the plant at plant growth stage 30 (start of stem elongation).

Another test has as its system Winter-rye Rekrut. Put plainly: Glasshouse trial, lodging of winter rye after leaf spray. It is filed as in vivo. As to conditions: for % lodging 30 days after spray application: Winter-rye Rekrut, spray at growth stage 30.
Excerpt: as §1, §2

Test [1] relates to soybeans (Toliman, S40-F8). Put plainly: Glasshouse trial, Nitrogen Balance Index (Dualex) of soybeans after leaf spray. As to conditions: for Nitrogen Balance Index 8 days after spray application: spray at growth stage 12. It is filed as in vivo, soybean. An excerpt:
A glasshouse trial was setup to compare crop enhancement effects of trinexapac-ethyl, seaweed extract, and mixtures of trinexapac-ethyl and seaweed extract at various rates, on two varieties of soybeans (Toliman, S40-F8)
Each treatment was applied as a spray to the leaves of the plant at plant growth stage 12 (trifoliolate leaf on the 2nd node unfolded). Assessments of the Nitrogen Balance Index (NBI) were made 8 days after spray application using a Dualex (Force-A, Orsay Cedex) device; NBI is a measure used to estimate the nitrogen and protein status of a plant.

Test [2] deals with soybeans (Toliman, S40-F8). Put plainly: Glasshouse trial, shoot length of soybeans after leaf spray. As to conditions: for Shoot length 11 days after spray application: spray at growth stage 12. The test is classed as in vivo, soybean. An excerpt: A glasshouse trial was setup to compare growth regulation effects of trinexapac-ethyl, seaweed extract, and mixtures of trinexapac-ethyl and seaweed extract at various rates, on two varieties of soybeans (Toliman, S40-F8).
Each treatment was applied as a spray to the leaves of the plant at plant growth stage 12 (trifoliolate leaf on the 2nd node unfolded).

[3] abbreviates: treatment 1: Moddus 100 g AI/ha.
[4] abbreviates: treatment 2: Moddus 200 g AI/ha.
Setting [5] is: Soybean var. S40-F8, treatment 1: Moddus 200 g AI/ha.
[6] abbreviates: Soybean var. S40-F8, treatment 2: Moddus 100 g AI/ha.
Setting [7] is: Soybean var. S40-F8, treatment 3: Moddus 50 g AI/ha.
Where [8] appears, read: Soybean var. Toliman, treatment 1: Moddus 200 g AI/ha.
Where [9] appears, read: Soybean var. Toliman, treatment 2: Moddus 100 g AI/ha.
[10] abbreviates: Soybean var. Toliman, treatment 3: Moddus 50 g AI/ha.

Each structure is given as a SMILES string.

On to `CCOC(=O)C1CC(=O)C(=C(O)C2CC2)C(=O)C1` (centres unmarked) [TXP, trinexapac-ethyl], for which the “% lodging 30 days after spray application” value in the test with summer barley (Pasadena) (setting [3]) is 10.0%; in the test with summer barley (Pasadena) (setting [4]), 6.7%; in the test on Winter-rye Rekrut (setting [3]) it was 6.7%; with Winter-rye Rekrut (setting [4]) it was 0.0%. Besides, the “Effect on lodging, in words” value in the test with summer barley (Pasadena) (summer barley, summary of Table 3, all rates, compared to untreated control or TXP alone) is reported as “reduces lodging compared to the control”; in the test with Winter-rye Rekrut (winter rye, summary of Table 3, all rates, compared to untreated control or TXP alone) it was “reduces lodging compared to the control”. Also, the “Nitrogen Balance Index 8 days after spray application” value in test [1] (setting [5]) stood at 125.5; in test [1] (setting [6]) it was 97.9; in test [1] (setting [7]) it was 77.1; in test [1] (setting [8]), 64.2; in test [1] (setting [9]), 48.7; in test [1] (setting [10]), 47.9. In addition, the “Effect on NBI, in words” value in test [1] (both soybean varieties, summary of Table 7, compared to untreated control or single components) is given as “increases NBI at high rate”. Moreover, the “Shoot length 11 days after spray application” value in test [2] (setting [5]) worked out at 34.5 cm; in test [2] (setting [6]), 39.5 cm; in test [2] (setting [7]), 45.8 cm; in test [2] (setting [8]), 54.8 cm; in test [2] (setting [9]), 59.3 cm; in test [2] (setting [10]), 61.3 cm. Further, the “Effect on plant length, in words” value in test [2] (both soybean varieties, summary of Table 5, all rates, compared to untreated control or TXP alone) was “reduces plant length compared to the control”.

Source of the values: patent US9314031B2, “Plant growth regulation” (SYNGENTA PARTICIPATIONS AG, priority 2012, dated 2016).
